Patent US20040102469A1, “Method for reducing the mortality rate” (Boehringer Ingelheim Pharma GmbH & Co. KG, priority 2002, published 2004)

Columns and labels:
[1] = five-year study; cited from earlier work
[2] = tested on: people with lung diseases, especially COPD; assay: mortality from respiratory disease in people with lung diseases regularly self-administering tiotropium through the HANDIHALER inhalation device; type: in vivo; conditions: regular self-administration by inhalation via HANDIHALER; compared with a population with similar characteristics not treated with tiotropium
Description: This is evidence by the number of people with lung diseases, especially COPD, who die from respiratory disease in a given prolonged period of time when regularly self-administering tiotropium through the HANDIHALER® inhalation device; the comparison being a population with similar characteristics not treated with tiotropium.

CC(C)[N+]1(C)[C@@H]2CC[C@H]1CC(OC(=O)C(CO)c1ccccc1)C2.[Br-] (some centres unmarked) [ipratropium bromide]
influence on mortality [1]: did not show any influence on mortality

C[N+]1(C)C2C[C@H](OC(=O)C(O)(c3cccs3)c3cccs3)CC1[C@H]1OC21 (stereo partly drawn) [tiotropium, (1α,2β,4β,5α,7β)-7-[(hydroxydi-2-thienylacetyl)oxy]-9,9-dimethyl-3-oxa-9-azoniatricyclo[3.3.1.0^2,4]nonane bromide]
reduction of the mortality rate (number of people who die from respiratory disease in a given prolonged period of time) [2]: suitable in the reduction of the mortality rate
